Several values for one entry are separate records, joined by “and”; a condition that tells them apart may be missing. Identical values can stand only once. Residues, ends and D or L forms follow the SMILES beside them. *: point of attachment. Cbz = O=C(OCc1ccccc1)*; OtBu = CC(C)(C)O*
Columns and labels:
[1] = Blood pressure and body weight after dosing, C57BL/6 mice; details: for Diastolic / MAP / Systolic / Body weight, Pre-dose / Body weight, Terminal: PW164 15 mpk i.d.
C57BL/6 mice [2] = experiment: Mechanical allodynia/hyperalgesia induced by intrathecal AAV2-FGF13-GFP (von Frey); assay type: in vivo, mouse
C57BL/6 mice [3] = experiment: Capsaicin-induced mechanical hypersensitivity (von Frey); assay type: in vivo, mouse; set-up: LVF Mean / HVF Mean / MECHANICAL LVF / MECHANICAL HVF: unit not given here
Text: FGF13 is a neuronal gene ubiquitously transcribed in DRG neuronal subtypes ([43]–[46]). To investigate neuronal subtype enrichment of the FGF13 transcript, we examined a gene panel including FGF13, SCN9A, and several marker genes in mouse single-cell transcriptomic data (Supplemental Figure 10) ([43]–[46]). […] Critically, putative silent nociceptors marked by somatostatin (SST), and the nicotinic cholinergic receptor α-3 subunit (CHRNA3) contribute to development of inflammatory mechanical hyperalgesia ([47]). […] We next determined if PW164 modulation of the FGF13/Nav1.7 complex could suppress nociceptive behaviors in WT mice. We tested whether intraplantar (i.pl.) injection (5 μL) of PW164 altered hind paw withdrawal in response to low or high intensity von Frey filament (LVF or HVF, respectively) mechanical stimulation (Figure 3A). […] Next, we evaluated PW164’s effect on mechanical and thermal hindpaw sensitivity in capsaicin-induced nociceptive hypersensitivity models. […] Next, we performed in vivo target validation in WT mice that received an intrathecal (i.t.) injection in L5 of AAV2-shFGF13 (6 μL, viral titers 1 × 10^12 vector genomes (vg)/mL); a control group received an equal number of AAV2-shCTRL particles (Figure 3C).
Experiments were performed on 6- to 12-week-old male C57BL/6 mice (The Jackson Laboratory, Bar Harbor, ME) housed in the AAALAC-accredited facility at the University of Texas Medical Branch. Mice were group-housed with up to 5 mice per cage on a 12-to-12-hour light–dark cycle and had access to water and food ad libitum. All protocols were approved by the Institutional Animal Care and Use Committee (IACUC) at the University of Texas Medical Branch and in accordance with the National Institutes of Health (NIH) guidelines.
PW164 and ZL192 were dissolved in DMSO and saline in a ratio of 1:10. 0.1% capsaicin (10% ethanol, 10% Tween-20 in saline; Sigma-Aldrich). All the compounds were injected at the center of the hind paw. The control group received a DMSO-saline mixture. […]
Bupivacaine was prepared from a 1:2 dilution with sterile 0.9% saline and locally injected in the center of the paw at 7 mg/ml.
AAV2 viral particles packaged by the University of North Carolina Gene Therapy Core Facility (viral titer ranging […]
Before intrathecal injections in the lumbar region, mice were maintained in an anesthetizing box with 2% isoflurane to induce unconsciousness. Six microliters of viral vector were gently injected into the CSF through a 30-gauge needle with a Hamilton syringe in the lumbar area between vertebrae L4 and L5 by gently gripping the iliac crest of the mouse and inserting the needle with an angle of 45°. The correct procedure was confirmed by the mouse’s tail reflexiv e flick.
Assessment of mechanical sensitivity
Mechanical sensitivity was assessed using von Frey filaments (VFF 0.1g and 1.0 g force) in mice that were either naïve or received intraplantar (i.p.) injection of capsaicin. VFFs were applied at the injection site (capsaicin or […]

[4] = 0h after dosing, individual No. 85, 87, 88, 89, 91, 15 mg/kg
[5] = 2h after dosing, individual No. 85, 87, 88, 89, 91, 15 mg/kg
[6] = 8h after dosing, individual No. 85, 87, 88, 89, 91, 15 mg/kg
[7] = individual No. 85, 87, 88, 89, 91, 15 mg/kg
[8] = Cap + PW164 0.07 mg/mL, Time (h) 0
[9] = Cap + PW164 0.07 mg/mL, Time (h) 0.5
[10] = Cap + PW164 0.07 mg/mL, Time (h) 1
[11] = Cap + PW164 0.07 mg/mL, Time (h) 1.5
[12] = Cap + PW164 0.07 mg/mL, Time (h) 2
[13] = Cap + PW164 0.07 mg/mL, Time (h) 3
[14] = Cap + PW164 0.21 mg/mL, Time (h) 0
[15] = Cap + PW164 0.21 mg/mL, Time (h) 0.5
[16] = Cap + PW164 0.21 mg/mL, Time (h) 1
[17] = Cap + PW164 0.21 mg/mL, Time (h) 1.5
[18] = Cap + PW164 0.21 mg/mL, Time (h) 2
[19] = Cap + PW164 0.21 mg/mL, Time (h) 3
[20] = Cap + PW164 0.7 mg/mL, Time (h) 0
[21] = Cap + PW164 0.7 mg/mL, Time (h) 0.5
[22] = Cap + PW164 0.7 mg/mL, Time (h) 1
[23] = Cap + PW164 0.7 mg/mL, Time (h) 1.5
[24] = Cap + PW164 0.7 mg/mL, Time (h) 2
[25] = Cap + PW164 0.7 mg/mL, Time (h) 3
[26] = Figure 3 D, AAV2-Control mice after Cap, 0.h min PW164
[27] = Figure 3 D, AAV2-Control mice after Cap, 1h PW164
[28] = Figure 3 D, AAV2-Control mice after Cap, 2h PW164
[29] = Figure 3 D, AAv2-shFGF13 mice after Cap, 0.h min PW164
[30] = Figure 3 D, AAv2-shFGF13 mice after Cap, 1h PW164
[31] = Figure 3 D, AAv2-shFGF13 mice after Cap, 2h PW164

SMILES: COC(=O)[C@@H](NC(=O)[C@H](CCC(=O)OC(C)(C)C)NC(=O)[C@H](CC(C)C)NC(=O)[C@@H]1CCCN1C(=O)OCc1ccccc1)C(C)C [PW164] (Cbz-PLE(OtBu)V-OMe)
- Diastolic ([1]; 0h after dosing, Mean): 81
- MAP ([1]; 0h after dosing, Mean): 92
- Systolic ([1]; 0h after dosing, Mean): 114
- Diastolic [1, 4]: 95 and 77 and 98 and 72 and 63
- MAP [1, 4]: 105 and 81 and 78 and 103 and 92
- Systolic [1, 4]: 120 and 101 and 108 and 118 and 121
- Diastolic ([1]; 2h after dosing, Mean): 74
- MAP ([1]; 2h after dosing, Mean): 85
- Systolic ([1]; 2h after dosing, Mean): 109
- Diastolic [1, 5]: 75 and 64 and 68 and 76 and 85
- MAP [1, 5]: 86 and 76 and 79 and 92 and 93
- Systolic [1, 5]: 107 and 100 and 103 and 125 and 111
- Diastolic ([1]; 8h after dosing, Mean): 81
- MAP ([1]; 8h after dosing, Mean): 93
- Systolic ([1]; 8h after dosing, Mean): 119
- Diastolic [1, 6]: 78 and 94 and 81 and 74 and 76
- MAP [1, 6]: 89 (3×) and 103 and 95
- Systolic [1, 6]: 114 and 121 and 123 and 120 and 117
- Body weight, Pre-dose ([1]; Mean): 25.3 g
- Body weight, Terminal ([1]; Mean): 24.8 g
- Body weight, Pre-dose [1, 7]: 25.7 g and 27.0 g and 24.4 g (2×) and 25.0 g
- Body weight, Terminal [1, 7]: 24.9 g and 26.8 g and 23.9 g and 23.8 g and 24.5 g
- blood pressure or body weight changes ([1]; up to 8 hours after injection): No changes
- HVF (C57BL/6 mice [2]; Figure 6E, PW164 0.7 mg/ml, 1h 30 min): 36.67 and 43.33 and 50 and 46.67 and 33.33 and 40
- allodynia and hyperalgesia in AAV2-FGF13-GFP mice (C57BL/6 mice [2]; day 68, PW164 5 μL, 0.7 mg/mL): complete recovery
- HVF Mean (C57BL/6 mice [3]; [8]): 50
- LVF Mean (C57BL/6 mice [3]; [8]): 0
- HVF Mean (C57BL/6 mice [3]; [9]): 100
- LVF Mean (C57BL/6 mice [3]; [9]): 62.5
- HVF Mean (C57BL/6 mice [3]; [10]): 97.5
- LVF Mean (C57BL/6 mice [3]; [10]): 62.5
- HVF Mean (C57BL/6 mice [3]; [11]): 85
- LVF Mean (C57BL/6 mice [3]; [11]): 45
- HVF Mean (C57BL/6 mice [3]; [12]): 87.5
- LVF Mean (C57BL/6 mice [3]; [12]): 35
- HVF Mean (C57BL/6 mice [3]; [13]): 83.75
- LVF Mean (C57BL/6 mice [3]; [13]): 32.5
- HVF Mean (C57BL/6 mice [3]; [14]): 51.6667
- LVF Mean (C57BL/6 mice [3]; [14]): 0
- HVF Mean (C57BL/6 mice [3]; [15]): 100
- LVF Mean (C57BL/6 mice [3]; [15]): 60
- HVF Mean (C57BL/6 mice [3]; [16]): 78.3333
- LVF Mean (C57BL/6 mice [3]; [16]): 40
- HVF Mean (C57BL/6 mice [3]; [17]): 83.3333
- LVF Mean (C57BL/6 mice [3]; [17]): 35
- HVF Mean (C57BL/6 mice [3]; [18]): 90
- LVF Mean (C57BL/6 mice [3]; [18]): 30
- HVF Mean (C57BL/6 mice [3]; [19]): 98.3333
- LVF Mean (C57BL/6 mice [3]; [19]): 38.3333
- HVF Mean (C57BL/6 mice [3]; [20]): 50
- LVF Mean (C57BL/6 mice [3]; [20]): 0
- HVF Mean (C57BL/6 mice [3]; [21]): 100
- LVF Mean (C57BL/6 mice [3]; [21]): 61.6667
- HVF Mean (C57BL/6 mice [3]; Cap + PW164 0.7 mg/mL, Time (h) 0.75): 80
- HVF Mean (C57BL/6 mice [3]; [22]): 63.3333
- LVF Mean (C57BL/6 mice [3]; [22]): 20
- HVF Mean (C57BL/6 mice [3]; [23]): 63.3333
- LVF Mean (C57BL/6 mice [3]; [23]): 13.3333
- HVF Mean (C57BL/6 mice [3]; [24]): 68.3333
- LVF Mean (C57BL/6 mice [3]; [24]): 21.6667
- HVF Mean (C57BL/6 mice [3]; [25]): 86.6667
- LVF Mean (C57BL/6 mice [3]; [25]): 31.6667
- HVF Mean (C57BL/6 mice [3]; [26]): 43.3333
- LVF Mean (C57BL/6 mice [3]; [26]): 14.17
- HVF Mean (C57BL/6 mice [3]; [27]): 50
- LVF Mean (C57BL/6 mice [3]; [27]): 13.33
- HVF Mean (C57BL/6 mice [3]; [28]): 45.8333
- LVF Mean (C57BL/6 mice [3]; [28]): 9.17
- HVF Mean (C57BL/6 mice [3]; [29]): 41.5152
- LVF Mean (C57BL/6 mice [3]; [29]): 9.09
- HVF Mean (C57BL/6 mice [3]; [30]): 37.9091
- LVF Mean (C57BL/6 mice [3]; [30]): 9.39
- HVF Mean (C57BL/6 mice [3]; [31]): 41.2121
- LVF Mean (C57BL/6 mice [3]; [31]): 11.52
- duration of analgesic effect (C57BL/6 mice [3]; PW164 0.7 mg/mL i.pl., naive and AAV2-shCTRL mice after capsaicin): at least 2 hours
- mechanical sensitivity in AAV2-shFGF13 mice after capsaicin (C57BL/6 mice [3]; PW164 5 μL, 0.7mg/mL hind paw): did not further modify
- capsaicin-induced mechanical sensitivity (C57BL/6 mice [3]; PW164 at the capsaicin injection site, 30 minutes post-capsaicin): inhibited
- lowest concentration with dose-dependent antihyperalgesic effect (C57BL/6 mice [3]; i.pl., capsaicin model): 0.21 mg/mL

Reference: paper PMC12259270, “Sensory neuron–expressed FGF13 controls nociceptive signaling in diabetic neuropathy models” (The Journal of Clinical Investigation, 2025)
